According to patent US20070167631A1, “Novel herbicides” (priority 2003, published 2007):

What was measured:
Polygonum = experiment: Comparison test with prior art compound B, post-emergence herbicidal action (Example B5); format: in vivo; conditions: 125 g/ha, rating scale 10=total damage, 0=no action
Description: (§1) The post-emergence herbicidal action of compound no. 1.096 according to the invention was compared with compound B, which is described as compound no. 2.088 on page 83,

Maize [1] = experiment: as above; format: in vivo; conditions: 125 g/ha
Description: as §1

Wheat [2] = experiment: as above; format: in vivo; conditions: 125 g/ha
Description: as §1

Stellaria [3] = experiment: as above; format: in vivo; conditions: 125 g/ha, rating scale 10=total damage, 0=no action
Description: as §1

Galium [4] = experiment: as above; format: in vivo; conditions: 125 g/ha, rating scale 10=total damage, 0=no action
Description: as §1

Ipomea [5] = experiment: as above; format: in vivo; conditions: 125 g/ha, rating scale 10=total damage, 0=no action
Description: as §1

Sida [6] = experiment: Comparison test with prior art compound A, post-emergence herbicidal action (Example B4); format: in vivo; conditions: 125 g/ha, rating scale 10=total damage, 0=no action
Description: (§2) The post-emergence herbicidal action of compound no. 1.095 according to the invention was compared with compound A, which is described as compound no.

Amaranthus [7] = experiment: as above; format: in vivo; conditions: 125 g/ha, rating scale 10=total damage, 0=no action
Description: as §2

Maize [8] = experiment: as above; format: in vivo; conditions: 125 g/ha, crop plant, rating scale 10=total damage, 0=no action
Description: as §2

Wheat [9] = experiment: as above; format: in vivo; conditions: 125 g/ha, crop plant, rating scale 10=total damage, 0=no action
Description: as §2

Stellaria [10] = experiment: as above; format: in vivo; conditions: 125 g/ha, rating scale 10=total damage, 0=no action
Description: as §2

Galium [11] = experiment: as above; format: in vivo; conditions: 125 g/ha, rating scale 10=total damage, 0=no action
Description: as §2

Ipomea [12] = experiment: as above; format: in vivo; conditions: 125 g/ha, rating scale 10=total damage, 0=no action
Description: as §2

Sinapis = experiment: as above; format: in vivo; conditions: 125 g/ha, rating scale 10=total damage, 0=no action
Description: as §2

Solanum = experiment: Microscreen, post-emergence herbicidal action (Example B3); format: in vivo; conditions: 250 g/ha, evaluated after 9 or 13 days, scale of eleven ratings (10=total damage, 0=no action)
Experimental: (§3) Example B3 Microscreen, Post-Emergence Herbicidal Action Monocotyledonous and dicotyledonous test plants are sown in sterilised standard soil in seed trays each having 96 cells. […] The plants are grown on in the climatic chamber until the test is evaluated after 9 or 13 days. The test is evaluated in accordance with a scale of eleven ratings (10=total damage, 0=no action). Ratings of from 10 to 7 (especially from 10 to 8) indicate very good to good herbicidal action.

Nasturtium = experiment: as above; format: in vivo; conditions: 250 g/ha, evaluated after 9 or 13 days, scale of eleven ratings (10=total damage, 0=no action)
Experimental: as §3

Amaranthus [13] = experiment: as above; format: in vivo; conditions: 250 g/ha, evaluated after 9 or 13 days, scale of eleven ratings (10=total damage, 0=no action)
Experimental: as §3

Digitaria = experiment: as above; format: in vivo; conditions: 250 g/ha, evaluated after 9 or 13 days, scale of eleven ratings (10=total damage, 0=no action)
Experimental: (§4) Example B3 Microscreen, Post-Emergence Herbicidal Action Monocotyledonous and dicotyledonous test plants are sown in sterilised standard soil in seed trays each having 96 cells. After 8 to 9 days' cultivation under controlled conditions in a climatic chamber (cultivation at 17/23° C.; 13 hours' light; 50-60% humidity; after application at 19/24° C.), the plants are treated with an aqueous spray solution of 1000 mg/l of the active ingredient used ([…]; incl. 10% DMSO as solvent). The plants are grown on in the climatic chamber until the test is evaluated after 9 or 13 days. The test is evaluated in accordance with a scale of eleven ratings (10=total damage, 0=no action). Ratings of from 10 to 7 (especially from 10 to 8) indicate very good to good herbicidal action.

Stellaria [14] = experiment: as above; format: in vivo; conditions: 250 g/ha, evaluated after 9 or 13 days, scale of eleven ratings (10=total damage, 0=no action)
Experimental: as §4

Sida [15] = experiment: Comparison test with prior art compound B, post-emergence herbicidal action (Example B5); format: in vivo; conditions: 125 g/ha, rating scale 10=total damage, 0=no action
Description: as §1

Bromus = experiment: as above; format: in vivo; conditions: 125 g/ha, rating scale 10=total damage, 0=no action
Description: as §1

[16] = crop plant, rating scale 10=total damage, 0=no action

SMILES | Post-emergence herbicidal action: Polygonum (Polygonum) | Post-emergence herbicidal action: Stellaria (Stellaria [3]) | Post-emergence herbicidal action: Galium (Galium [4]) | Post-emergence herbicidal action: Ipomea (Ipomea [5]) | Solanum, herbicidal action rating (Solanum) | Nasturtium, herbicidal action rating (Nasturtium) | Amaranthus, herbicidal action rating (Amaranthus [13]) | Digitaria, herbicidal action rating (Digitaria) | Stellaria, herbicidal action rating (Stellaria [14]) | other results
COc1nc(C(=O)C2=C(O)C3CCC(C3)C2=O)ccc1C(F)(F)F (stereo not drawn) [B, reference compound] | 4 | 6 | 4 | 6 |  |  |  |  |  | Post-emergence herbicidal action: Maize (Maize [1]; [16]): 2; phytotoxicity to maize (Maize [1]; post-emergence): 20%; Post-emergence herbicidal action: Wheat (Wheat [2]; [16]): 2; phytotoxicity to wheat (Wheat [2]; post-emergence): 20%
O=C1CCCC(O)=C1C(=O)c1ccc(C(F)(F)F)c(Cl)n1 [Compound 1.095] |  |  |  |  | 7 | 9 | 7 | 3 | 7 | Post-emergence herbicidal action: Sida (Sida [6]): 5; Post-emergence herbicidal action: Amaranthus (Amaranthus [7]): 7; Post-emergence herbicidal action: Maize (Maize [8]): 0; Post-emergence herbicidal action: Wheat (Wheat [9]): 0; Post-emergence herbicidal action: Stellaria (Stellaria [10]): 8; Post-emergence herbicidal action: Galium (Galium [11]): 6; Post-emergence herbicidal action: Ipomea (Ipomea [12]): 7; Post-emergence herbicidal action: Sinapis (Sinapis): 7
COc1nc(C(=O)C2=C(O)CCCC2=O)ccc1C(F)(F)F [Compound 1.096] | 8 | 8 | 8 | 7 | 9 | 10 | 9 | 8 | 9 | Post-emergence herbicidal action: Sida (Sida [15]): 7; Post-emergence herbicidal action: Bromus (Bromus): 5; melting point: 80 to 81 °C
